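Assay format: 96-well plates, 48-hour exposure. Abbreviation: GI50, concentration required for 50% inhibition of growth. At the TGI there is no net growth.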
What was measured:
Test in all cases: DTP human tumour cell line panel, 48 h
786-0 renal = tested on: 786-0 renal
A498 renal = tested on: A498 renal
A549 NSCLC = tested on: A549 NSCLC
ACHN renal = tested on: ACHN renal
BT-549 breast = tested on: BT-549 breast
CAKI-1 renal = tested on: CAKI-1 renal
CCRF-CEM leukemia = tested on: CCRF-CEM leukemia
COLO 205 colon = tested on: COLO 205 colon
DU-145 prostate = tested on: DU-145 prostate
EKVX NSCLC = tested on: EKVX NSCLC
HCC-2998 colon = tested on: HCC-2998 colon
HCT-116 colon = tested on: HCT-116 colon
HCT-15 colon = tested on: HCT-15 colon
HOP-62 NSCLC = tested on: HOP-62 NSCLC
HOP-92 NSCLC = tested on: HOP-92 NSCLC
HS 578T breast = tested on: HS 578T breast
HT29 colon = tested on: HT29 colon
IGROV1 ovarian = tested on: IGROV1 ovarian
K-562 leukemia = tested on: K-562 leukemia
KM12 colon = tested on: KM12 colon
LOX IMVI melanoma = tested on: LOX IMVI melanoma
M14 melanoma = tested on: M14 melanoma
MCF7 breast = tested on: MCF7 breast
MDA-MB-231 breast = tested on: MDA-MB-231 breast
MDA-MB-435 = tested on: MDA-MB-435
MOLT-4 leukemia = tested on: MOLT-4 leukemia
NCI-H226 lung = tested on: NCI-H226 lung
NCI-H23 lung = tested on: NCI-H23 lung
NCI-H460 lung = tested on: NCI-H460 lung
NCI-H522 lung = tested on: NCI-H522 lung
NCI/ADR-RES ovarian = tested on: NCI/ADR-RES ovarian
OVCAR-3 ovarian = tested on: OVCAR-3 ovarian
OVCAR-4 ovarian = tested on: OVCAR-4 ovarian
OVCAR-5 ovarian = tested on: OVCAR-5 ovarian
OVCAR-8 ovarian = tested on: OVCAR-8 ovarian
PC-3 prostate = tested on: PC-3 prostate
RPMI-8226 leukemia = tested on: RPMI-8226 leukemia
RXF 393 renal = tested on: RXF 393 renal
SF-268 CNS = tested on: SF-268 CNS
SF-295 CNS = tested on: SF-295 CNS
SF-539 CNS = tested on: SF-539 CNS
SK-MEL-2 melanoma = tested on: SK-MEL-2 melanoma
SK-MEL-28 melanoma = tested on: SK-MEL-28 melanoma
SK-MEL-5 melanoma = tested on: SK-MEL-5 melanoma
SK-OV-3 ovarian = tested on: SK-OV-3 ovarian
SN12C renal = tested on: SN12C renal
SNB-19 CNS = tested on: SNB-19 CNS
SNB-75 CNS = tested on: SNB-75 CNS
SW-620 colon = tested on: SW-620 colon
T-47D breast = tested on: T-47D breast
TK-10 renal = tested on: TK-10 renal
U251 CNS = tested on: U251 CNS
UACC-257 melanoma = tested on: UACC-257 melanoma
UACC-62 melanoma = tested on: UACC-62 melanoma
UO-31 renal = tested on: UO-31 renal
MALME-3M melanoma = tested on: MALME-3M melanoma
SR leukemia = tested on: SR leukemia

With `C=CCN=C(N/N=C/c1ccc([N+](=O)[O-])o1)NS(=O)(=O)c1cc(C(=O)Nc2ccccc2)c(Cl)cc1SCC(N)=O` the GI50 (786-0 renal) was 63.7 µM, the TGI (786-0 renal) was greater than 100 µM and the GI50 (A498 renal) was 77.8 µM. It also gave a TGI (A498 renal) greater than 100 µM, a GI50 (A549 NSCLC) greater than 100 µM and a TGI (A549 NSCLC) greater than 100 µM. The GI50 (ACHN renal) was greater than 100 µM, the TGI (ACHN renal) was greater than 100 µM and the GI50 (BT-549 breast) was 10.4 µM. It also gave a TGI (BT-549 breast) of 31.8 µM, a GI50 (CAKI-1 renal) greater than 100 µM and a TGI (CAKI-1 renal) greater than 100 µM. It also gave a GI50 (CCRF-CEM leukemia) of 5.73 µM, a TGI (CCRF-CEM leukemia) of 27.6 µM and a GI50 (COLO 205 colon) of 6.55 µM. The TGI (COLO 205 colon) was greater than 100 µM, the GI50 (DU-145 prostate) was 22.4 µM and the TGI (DU-145 prostate) was 71.9 µM. For the same compound, the GI50 (EKVX NSCLC) was 22.9 µM, the TGI (EKVX NSCLC) was greater than 100 µM and the GI50 (HCC-2998 colon) was 20.7 µM. It also gave a TGI (HCC-2998 colon) of 40.6 µM, a GI50 (HCT-116 colon) of 20.2 µM and a TGI (HCT-116 colon) of 49 µM. The GI50 (HCT-15 colon) was greater than 100 µM, the TGI (HCT-15 colon) was greater than 100 µM and the GI50 (HOP-62 NSCLC) was 53.9 µM. For the same compound, the TGI (HOP-62 NSCLC) was greater than 100 µM, the GI50 (HOP-92 NSCLC) was 13.6 µM and the TGI (HOP-92 NSCLC) was 52.2 µM. It also gave a GI50 (HS 578T breast) of 15.6 µM, a TGI (HS 578T breast) of 66.3 µM and a GI50 (HT29 colon) of 40.8 µM. For the same compound, the TGI (HT29 colon) was greater than 100 µM, the GI50 (IGROV1 ovarian) was 32.2 µM and the TGI (IGROV1 ovarian) was 97.3 µM. For the same compound, the GI50 (K-562 leukemia) was 9.16 µM, the TGI (K-562 leukemia) was 49.8 µM and the GI50 (KM12 colon) was 17.1 µM. The TGI (KM12 colon) was 32.5 µM, the GI50 (LOX IMVI melanoma) was 17 µM and the TGI (LOX IMVI melanoma) was 42.1 µM. The GI50 (M14 melanoma) was 69.8 µM, the TGI (M14 melanoma) was greater than 100 µM and the GI50 (MCF7 breast) was 25.2 µM. The TGI (MCF7 breast) was 77.6 µM, the GI50 (MDA-MB-231 breast) was 14 µM and the TGI (MDA-MB-231 breast) was 50.8 µM. For the same compound, the GI50 (MDA-MB-435) was 17.9 µM, the TGI (MDA-MB-435) was 36.7 µM and the GI50 (MOLT-4 leukemia) was 13.4 µM. The TGI (MOLT-4 leukemia) was 43.9 µM, the GI50 (NCI-H226 lung) was 30.8 µM and the TGI (NCI-H226 lung) was greater than 100 µM. It also gave a GI50 (NCI-H23 lung) of 20.9 µM, a TGI (NCI-H23 lung) of 49.6 µM and a GI50 (NCI-H460 lung) of 69.4 µM. The TGI (NCI-H460 lung) was greater than 100 µM, the GI50 (NCI-H522 lung) was 27.8 µM and the TGI (NCI-H522 lung) was 67.1 µM. The GI50 (NCI/ADR-RES ovarian) was greater than 100 µM, the TGI (NCI/ADR-RES ovarian) was greater than 100 µM and the GI50 (OVCAR-3 ovarian) was 14.7 µM. It also gave a TGI (OVCAR-3 ovarian) of 39.8 µM, a GI50 (OVCAR-4 ovarian) of 53 µM and a TGI (OVCAR-4 ovarian) greater than 100 µM. The GI50 (OVCAR-5 ovarian) was greater than 100 µM, the TGI (OVCAR-5 ovarian) was greater than 100 µM and the GI50 (OVCAR-8 ovarian) was 29.6 µM. For the same compound, the TGI (OVCAR-8 ovarian) was greater than 100 µM, the GI50 (PC-3 prostate) was 33 µM and the TGI (PC-3 prostate) was greater than 100 µM. It also gave a GI50 (RPMI-8226 leukemia) of 20.4 µM, a TGI (RPMI-8226 leukemia) of 55.1 µM and a GI50 (RXF 393 renal) of 24.8 µM. It also gave a TGI (RXF 393 renal) greater than 100 µM, a GI50 (SF-268 CNS) of 29 µM and a TGI (SF-268 CNS) greater than 100 µM. The GI50 (SF-295 CNS) was greater than 100 µM, the TGI (SF-295 CNS) was greater than 100 µM and the GI50 (SF-539 CNS) was 18.8 µM. It also gave a TGI (SF-539 CNS) of 41.5 µM, a GI50 (SK-MEL-2 melanoma) of 16.1 µM and a TGI (SK-MEL-2 melanoma) of 45.3 µM. For the same compound, the GI50 (SK-MEL-28 melanoma) was 37.6 µM, the TGI (SK-MEL-28 melanoma) was greater than 100 µM and the GI50 (SK-MEL-5 melanoma) was 5.45 µM. The TGI (SK-MEL-5 melanoma) was 18.3 µM, the GI50 (SK-OV-3 ovarian) was greater than 100 µM and the TGI (SK-OV-3 ovarian) was greater than 100 µM. It also gave a GI50 (SN12C renal) of 29 µM, a TGI (SN12C renal) greater than 100 µM and a GI50 (SNB-19 CNS) of 33.8 µM. For the same compound, the TGI (SNB-19 CNS) was greater than 100 µM, the GI50 (SNB-75 CNS) was greater than 100 µM and the TGI (SNB-75 CNS) was greater than 100 µM. For the same compound, the GI50 (SW-620 colon) was 5.99 µM, the TGI (SW-620 colon) was 37.4 µM and the GI50 (T-47D breast) was 23.1 µM. For the same compound, the TGI (T-47D breast) was greater than 100 µM, the GI50 (TK-10 renal) was 51.8 µM and the TGI (TK-10 renal) was greater than 100 µM. The GI50 (U251 CNS) was 22.9 µM, the TGI (U251 CNS) was 95.8 µM and the GI50 (UACC-257 melanoma) was 19.5 µM. It also gave a TGI (UACC-257 melanoma) of 49 µM, a GI50 (UACC-62 melanoma) of 17.3 µM and a TGI (UACC-62 melanoma) of 33.3 µM. It also gave a GI50 (UO-31 renal) greater than 100 µM and a TGI (UO-31 renal) greater than 100 µM.

With `CC(CC=O)Nc1nn2c(=O)c3ccccc3nc2s1` (stereo unspecified) the TGI (786-0 renal) was greater than 100 µM, the TGI (A498 renal) was greater than 100 µM and the TGI (A549 NSCLC) was greater than 100 µM. For the same compound, the TGI (ACHN renal) was greater than 100 µM, the TGI (BT-549 breast) was greater than 100 µM and the TGI (CAKI-1 renal) was greater than 100 µM. For the same compound, the TGI (CCRF-CEM leukemia) was greater than 100 µM, the TGI (COLO 205 colon) was greater than 100 µM and the TGI (DU-145 prostate) was greater than 100 µM. The TGI (EKVX NSCLC) was greater than 100 µM, the TGI (HCC-2998 colon) was greater than 100 µM and the TGI (HCT-116 colon) was greater than 100 µM. The TGI (HCT-15 colon) was greater than 100 µM, the TGI (HOP-62 NSCLC) was greater than 100 µM and the TGI (HOP-92 NSCLC) was greater than 100 µM. The TGI (HS 578T breast) was greater than 100 µM, the TGI (HT29 colon) was greater than 100 µM and the TGI (IGROV1 ovarian) was greater than 100 µM. It also gave a TGI (K-562 leukemia) greater than 100 µM, a TGI (KM12 colon) greater than 100 µM and a TGI (LOX IMVI melanoma) greater than 100 µM. The TGI (M14 melanoma) was greater than 100 µM, the TGI (MALME-3M melanoma) was greater than 100 µM and the TGI (MCF7 breast) was greater than 100 µM. For the same compound, the TGI (MDA-MB-435) was greater than 100 µM, the TGI (MOLT-4 leukemia) was greater than 100 µM and the TGI (NCI-H226 lung) was greater than 100 µM. For the same compound, the TGI (NCI-H23 lung) was greater than 100 µM, the TGI (NCI-H460 lung) was greater than 100 µM and the TGI (NCI-H522 lung) was greater than 100 µM. For the same compound, the TGI (NCI/ADR-RES ovarian) was greater than 100 µM, the TGI (OVCAR-3 ovarian) was greater than 100 µM and the TGI (OVCAR-4 ovarian) was greater than 100 µM. For the same compound, the TGI (OVCAR-5 ovarian) was greater than 100 µM, the TGI (OVCAR-8 ovarian) was greater than 100 µM and the TGI (PC-3 prostate) was greater than 100 µM. The TGI (RPMI-8226 leukemia) was greater than 100 µM, the TGI (RXF 393 renal) was greater than 100 µM and the TGI (SF-268 CNS) was greater than 100 µM. The TGI (SF-295 CNS) was greater than 100 µM, the TGI (SF-539 CNS) was greater than 100 µM and the TGI (SK-MEL-2 melanoma) was greater than 100 µM. It also gave a TGI (SK-MEL-28 melanoma) greater than 100 µM, a TGI (SK-MEL-5 melanoma) greater than 100 µM and a TGI (SK-OV-3 ovarian) greater than 100 µM. It also gave a TGI (SN12C renal) greater than 100 µM, a TGI (SNB-19 CNS) greater than 100 µM and a TGI (SNB-75 CNS) greater than 100 µM. The TGI (SR leukemia) was greater than 100 µM, the TGI (SW-620 colon) was greater than 100 µM and the TGI (T-47D breast) was greater than 100 µM. For the same compound, the TGI (TK-10 renal) was greater than 100 µM, the TGI (U251 CNS) was greater than 100 µM and the TGI (UACC-257 melanoma) was greater than 100 µM. The TGI (UACC-62 melanoma) was greater than 100 µM and the TGI (UO-31 renal) was 48.1 µM.

Source: PubChem BioAssay (NCI)
